Patent publication US20190389958A1, “ANTI-CXCR4 ANTIBODIES” (MSM Protein Technologies, Inc., priority 2017, published 2019)

Columns and labels:
RA1 cells [1] = test: Anti-tumor activity in a SCID/RA1 xenograft model of Burkitt's lymphoma (Example 11); assay type: in vivo, SCID mice; conditions: for Mean Survival / Median Survival / Mice alive at the end of the study = day 81 / % Increased life span: 10 mg/kg, IV, Q4D × 6; for % Increased life span: ILS % = [(T-C)/C]×100 of median survival; for survival of mice (in words): SCID mice with RA1 cells
Procedure: The therapeutic effect of test antibodies was evaluated in an animal model of Burkitt's lymphoma. In the model used, systemic cancer in SCID mice causes hind limb paralysis and infiltrates all major organs.
Forty-eight hours before tumor cell injection, female SCID mice (7-9 weeks old, weighing 17-22 g) were irradiated with a γ-source (1.8 Gy, ^60Co). […] The tumor bearing mice were distributed on D4 into 10 groups of 10 mice each based on body weight using Vivo Manager® software (Biosystemes, Dijon, France). […] Treatment started on D4: mice were administered intravenously a 5 mg/kg or a 10 mg/kg dose of test antibody on days 4, 8, 12, 16, 20 and 24. The vehicle for injection was 10 mM Na-Citrate, 150 mM NaCl, 50 mM Arginine (pH 5.5). Body weights were measured and recorded twice weekly. Mean survival time was calculated for each group as the mean of the day of death, and median survival time was calculated for each group as the median of the day of death. The efficacy of each test antibody was judged by the increased life span value (ILS). ILS % was expressed as follows: ILS %=[(T-C)/C]×100. T was the median of the survival times of animals treated with each test antibody, and C was the median survival time of control animals treated with vehicle.

RA1 cells [2] = test: Antibody-dependent cell-mediated cytotoxicity (ADCC), LDH release (Example 10); assay type: cell-based, human; conditions: E:T ratio 20:1
Procedure: ADCC was measured with RA1 cells as the target cells (T) and using the CytoTox 96® Non-Radioactive Cytotoxicity Assay (Promega Corp., Fitchburg, Wis.)), which assay measures lactate dehydrogenase (LDH) release. A round-bottom 96-well culture plate was set up with the following control and experimental wells (100 microliter final volumes):
a. RA1 cells (for target cell spontaneous LDH release control) b. RA1 cells (for target cell maximum LDH release control) c. Culture medium (RPMI 1640 Medium (1X) without phenol red) used for volume correction control d. Culture medium (for culture medium background control) e. RA1 plus effector cells (E) (for target plus effector cell spontaneous LDH release control) f. Experimental wells with effector and target cells (10^5) with serial dilutions of each test IgG or without test IgG.
The plates were centrifuged at 1600 rpm for 2 minutes and incubated at 37° C. for 4 hours. One hour prior to supernatant harvest, 20 microliters of Lysis Solution (10×) were added to the conditions b) and c). The plates were centrifuged at 1600 rpm for 2 minutes, and 50 microliters of the supernatant from each well of the assay plates were transferred to corresponding wells of a flat-bottom 96-well enzymatic assay plate. Substrate Mix (50 microliters) was added to each well of the latter plate, and the plate (protected from light) was incubated for 30 minutes at room temperature. Finally, 50 microliters of Stop Solution were added to each well, and absorbance (OD values) was measured at 490 nm. Each condition was tested in triplicates.
Preliminary experiments had been conducted in order to determine the optimal E:T ratio. The data shown below were obtained at a 20:1 E:T ratio with 10^5 RA1 target cells. The effector cells used in this study were prepared as follows: human peripheral blood mononuclear cells (PBMCs) obtained from a healthy donor were isolated by means of density gradient centrifugation using Lymphocyte Separation Medium (ref. J15-004, Invitrogen Corp., Carlsbad, Calif.). PBMCs at 2×10^6 per mL were cultured for two days in RPMI 1640 with 10% FCS, penicillin/streptomycin and 100 units per mL of human recombinant IL-2 (obtained from Roussel-Uclaf) in a 37° C. humidified incubator (5% CO2).
ADCC percentages obtained at different concentrations of test IgGs were calculated with the formula % ADCC=(f−e)/(b−a)×100, i.e., % ADCC=(OD of Target+Effector cells +/−Test Mab −OD of Spontaneous Release of Target+Effector cells)/(OD Maximal Release Target cells −OD Spontaneous Release of Target cells)×100.

Human U937 cells = test: Inhibition of SDF-1alpha-induced chemotaxis/cell migration (Example 9); assay type: cell-based; conditions: U-937, SDF-1alpha 3 nM, AMD3100 1 μM
Procedure: Human U937 cells were grown in RPMI-1640 medium with 10% FCS, then washed twice and incubated in serum-free RPMI-1640 at 37° C. for 3 hours (5% CO2). Starved […] cells were re-suspended in medium for chemotaxis (RPMI-1640 with 0.3% BSA) at 3*10^5 cells per ml and • a) incubated for 30 min at room temperature (not-pre-treated positive control for assay); • b) pre-treated with AMD 3100 at 1 μM concentration (positive control for chemotaxis inhibition) for 30 min at room temperature; or • c) pre-treated with a test IgG at 100 nM concentration for 30 min at room temperature.
Respective not-pre-treated or pre-treated U937 cells were then placed into the top wells of a microchemotaxis chamber (15,000 cells per well).
A polycarbonate filter with a […] pore diameter separated top and bottom chambers.
After incubation for one hour at 37° C. (5% CO2), the cell suspensions were removed from the top wells, and the wells were washed once with PBS. […] The number of migrated cells in each well was determined using a Guava PCA-96 cytometer. […]
Maximal SDF-1 induced migration was calculated as the difference in the number of migrated cells between conditions (al) and (a) in the Table immediately above. The percentage of migration inhibition for a test antibody was then calculated by reference to this maximal migration.

Compound	Mean Survival (RA1 cells [1]) [days]	Median Survival (RA1 cells [1]) [days]	Mice alive at the end of the study = day 81 (RA1 cells [1])	% Increased life span (RA1 cells [1]) [%]	survival of mice (in words) (RA1 cells [1])	ADCC percentage (RA1 cells [2]; 0.0001 μg/mL) [%]	ADCC percentage (RA1 cells [2]; 0.001 μg/mL) [%]	ADCC percentage (RA1 cells [2]; 0.01 μg/mL) [%]	ADCC percentage (RA1 cells [2]; 0.1 μg/mL) [%]	ADCC percentage (RA1 cells [2]; 1 μg/mL) [%]	inhibition at 1 µM (Human U937 cells) [%]
Xolair: isotypic control [reference compound]	29	27	0/10	0	died of disseminated disease with severe weight loss or were terminated because they were moribund within four weeks						
Rituximab: CD20 antibody Mabthera, used as positive control [reference compound]	63	62	0/10	130	lived significantly longer than control mice	3	8	27	46	60	
c1cc(CN2CCCNCCNCCCNCC2)ccc1CN1CCCNCCNCCCNCC1 [AMD3100]											98
